Data on 20 molecules can be found in PubChem BioAssay AID330 (DTP/NCI, 2004).

For this assay, the system named is P388 leukemia ip, CD2F1 mice, survival T/C. The assay can be described thus: NCI In Vivo Anticancer Drug Screen. Data for tumor model P388 Leukemia (intraperitoneal) in CD2F1 (CDF1) mice. The following applies: endpoint: median survival time, higher = longer survival. In a few lines: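 Mice carrying the transplanted tumor received test compound or vehicle. Survival was recorded in each group, and the value is the treated-group measurement divided by that of the vehicle-treated control group.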

Setting [1] is: dose: 100.0 mg/kg/injection, schedule: Q01DX001 (ip), vehicle: saline with Tween-80.
[2] abbreviates: dose: 200.0 mg/kg/injection, schedule: Q01DX001 (ip), vehicle: saline with Tween-80.
Where [3] appears, read: dose: 400.0 mg/kg/injection, schedule: Q01DX001 (ip), vehicle: saline with Tween-80.
The mark [4] stands for this setting: dose: 100.0 mg/kg/injection, schedule: Q04DX002 (ip), vehicle: saline with Tween-80.
[5] abbreviates: dose: 200.0 mg/kg/injection, schedule: Q04DX002 (ip), vehicle: saline with Tween-80.
[6] abbreviates: dose: 50.0 mg/kg/injection, schedule: Q01DX005 (ip), vehicle: saline with Tween-80.
Where [7] appears, read: dose: 100.0 mg/kg/injection, schedule: Q01DX005 (ip), vehicle: saline with Tween-80.
The mark [8] stands for this setting: dose: 100.0 mg/kg/injection, schedule: Q01DX001 (ip), vehicle: Klucel (hydroxypropylcellulose) (HPC).
The mark [9] stands for this setting: dose: 200.0 mg/kg/injection, schedule: Q01DX001 (ip), vehicle: Klucel (hydroxypropylcellulose) (HPC).
The mark [10] stands for this setting: dose: 400.0 mg/kg/injection, schedule: Q01DX001 (ip), vehicle: Klucel (hydroxypropylcellulose) (HPC).

Several values for one entry are separate records, joined by “and”; a condition that tells them apart may be missing. Equal entries are not always repeated. Inconclusive results and toxic doses are left out.

With `O=c1[nH]ccc2nncn12`, the T/C runs as follows: under setting [1], 100 % of control; under setting [2], 106 % of control; under setting [3], 99 % of control.
Regarding `Cc1[nH]c(=O)[nH]c(=O)c1/C=C/C(=O)NC(CO)CS(C)=O` (centres undefined), the T/C is, setting by setting: (dose: 0.07 mg/kg/injection, schedule: Q01DX009 (ip), vehicle: water) 108 % of control; (dose: 0.15 mg/kg/injection, schedule: Q01DX009 (ip), vehicle: water) 106 % of control and 100 % of control; (dose: 0.3 mg/kg/injection, schedule: Q01DX009 (ip), vehicle: water) 92 % of control and 110 % of control; (dose: 0.6 mg/kg/injection, schedule: Q01DX009 (ip), vehicle: water) 98 % of control and 110 % of control; (dose: 1.2 mg/kg/injection, schedule: Q01DX009 (ip), vehicle: water) 112 % of control; (dose: 2.0 mg/kg/injection, schedule: Q01DX009 (ip), vehicle: water) 118 % of control. Moreover, the T/C (dose: 4.0 mg/kg/injection, schedule: Q01DX009 (ip), vehicle: water) is 120 % of control; the T/C (dose: 16.0 mg/kg/injection, schedule: Q01DX009 (ip), vehicle: water) is 111 % of control; the T/C (dose: 40.0 mg/kg/injection, schedule: Q01DX009 (ip), vehicle: water) is 102 % of control; the T/C (dose: 64.0 mg/kg/injection, schedule: Q01DX009 (ip), vehicle: water) is 116 % of control and 123 % of control; the T/C (dose: 128.0 mg/kg/injection, schedule: Q01DX009 (ip), vehicle: water) is 124 % of control.
In the case of `Cc1ccc2sc3c(ccc(=O)n3C)c(=O)c2c1`, the T/C by setting is: under setting [4], 115 % of control; under setting [5], 120 % of control.
In the case of `CCC(=O)Oc1ccc(N=Nc2ccc(O)c(/C=N\NC(=O)CNc3ccccc3)c2)cc1`, the T/C was 88 % of control under setting [1], 86 % of control under setting [2] and 100 % of control under setting [3].
Consider `COc1ccc(-n2c(-c3ccc(-n4c(C)nc5ccccc5c4=O)cc3)n[nH]c2=S)cc1`, for which the T/C by setting is: (dose: 37.5 mg/kg/injection, schedule: Q01DX005 (ip), vehicle: Klucel (hydroxypropylcellulose) (HPC)) 102 % of control; (dose: 75.0 mg/kg/injection, schedule: Q01DX005 (ip), vehicle: Klucel (hydroxypropylcellulose) (HPC)) 105 % of control; (dose: 150.0 mg/kg/injection, schedule: Q01DX005 (ip), vehicle: Klucel (hydroxypropylcellulose) (HPC)) 104 % of control.
Consider `Clc1ncnc2ccccc12`, for which the T/C under setting [6] was 105 % of control and the T/C under setting [7] was 89 % of control.
With `CC(C)C(CC[C@@H](C)C1CC[C@@]2(C)C3=C(CC[C@]12C)[C@@]1(C)CC[C@H](O)C(C)(C)[C@@H]1CC3)S[As](C)C` (some centres undefined), the T/C runs as follows: (dose: 50.0 mg/kg/injection, schedule: Q01DX005 (ip), vehicle: Klucel (hydroxypropylcellulose) (HPC)) 92 % of control; (dose: 100.0 mg/kg/injection, schedule: Q01DX005 (ip), vehicle: Klucel (hydroxypropylcellulose) (HPC)) 95 % of control; (dose: 200.0 mg/kg/injection, schedule: Q01DX005 (ip), vehicle: Klucel (hydroxypropylcellulose) (HPC)) 97 % of control.
On to `CN(C)CN1C(=O)S/C(=C2\C(=O)N(C)c3ccc(Br)cc32)C1=O`, for which the T/C is, setting by setting: under setting [8], 101 % of control; under setting [9], 95 % of control; under setting [10], 97 % of control.
On to `N/C(CC(=O)Nc1cc(C(F)(F)F)ccc1Cl)=N\O`, for which the T/C runs as follows: (dose: 60.0 mg/kg/injection, schedule: Q01DX005 (ip), vehicle: saline with Tween-80) 108 % of control; (dose: 120.0 mg/kg/injection, schedule: Q01DX005 (ip), vehicle: saline with Tween-80) 100 % of control; (dose: 240.0 mg/kg/injection, schedule: Q01DX005 (ip), vehicle: saline with Tween-80) 108 % of control.
Regarding `CCCCn1cnc(C(=O)OC)c1O` (tested in a mixture with another compound), the T/C was 103 % of control (dose: 100.0 mg/kg/injection, schedule: Q04DX002 (ip), vehicle: water); 101 % of control (dose: 200.0 mg/kg/injection, schedule: Q04DX002 (ip), vehicle: water); 108 % of control (dose: 400.0 mg/kg/injection, schedule: Q04DX002 (ip), vehicle: water).
On to `CC(=O)OCC1OC(OC(C)=O)C(NC(=S)NCC(=O)c2ccc(C)cc2)C(OC(C)=O)C1OC(C)=O` (centres undefined), for which the T/C under setting [6] was 99 % of control; the T/C under setting [7] was 100 % of control; the T/C (dose: 200.0 mg/kg/injection, schedule: Q01DX005 (ip), vehicle: saline with Tween-80) is 101 % of control.
For the molecule `Cc1ccc(S(=O)(=O)N/N=C/c2ccc(O)c(S(=O)(=O)O)c2)cc1`, the T/C (dose: 12.5 mg/kg/injection, schedule: Q01DX009 (ip), vehicle: water) was 97 % of control; the T/C (dose: 25.0 mg/kg/injection, schedule: Q01DX009 (ip), vehicle: water) was 101 % of control; the T/C (dose: 50.0 mg/kg/injection, schedule: Q01DX009 (ip), vehicle: water) was 101 % of control; the T/C (dose: 100.0 mg/kg/injection, schedule: Q01DX009 (ip), vehicle: water) is 110 % of control; the T/C (dose: 200.0 mg/kg/injection, schedule: Q01DX009 (ip), vehicle: water) is 99 % of control.
`O=C(NCc1ccc(Cl)cc1)OCc1c2ccccc2cc2ccccc12`: the T/C is 95 % of control (dose: 50.0 mg/kg/injection, schedule: Q01DX009 (ip), vehicle: Klucel (hydroxypropylcellulose) (HPC)) and 93 % of control (dose: 100.0 mg/kg/injection, schedule: Q01DX009 (ip), vehicle: Klucel (hydroxypropylcellulose) (HPC)).
Take `CC(=O)[C@]1(O)Cc2c(O)c3c(c(O)c2C(OC2CC(N=[N+]=[N-])C(O)[C@@H](CN=[N+]=[N-])O2)C1)C(=O)c1c(O)cccc1C3=O` (some centres undefined): the T/C was 93 % of control (dose: 3.13 mg/kg/injection, schedule: Q04DX003 (ip), vehicle: saline with Tween-80); 93 % of control (dose: 6.25 mg/kg/injection, schedule: Q04DX003 (ip), vehicle: saline with Tween-80); 96 % of control (dose: 12.5 mg/kg/injection, schedule: Q04DX003 (ip), vehicle: saline with Tween-80); 96 % of control (dose: 25.0 mg/kg/injection, schedule: Q04DX003 (ip), vehicle: saline with Tween-80); 91 % of control (dose: 50.0 mg/kg/injection, schedule: Q04DX003 (ip), vehicle: saline with Tween-80); 105 % of control (dose: 100.0 mg/kg/injection, schedule: Q04DX003 (ip), vehicle: saline with Tween-80).
In the case of `O=C1OCCOCCOCCOCCOC(=O)c2cncc1c2`, the T/C is 101 % of control under setting [8], 108 % of control under setting [9] and 105 % of control under setting [10].
`OCC1OC(Sc2ncc[nH]2)C(O)C(O)C1O` (centres undefined): the T/C (dose: 60.0 mg/kg/injection, schedule: Q01DX005 (ip), vehicle: saline) is 94 % of control and 97 % of control; the T/C (dose: 120.0 mg/kg/injection, schedule: Q01DX005 (ip), vehicle: saline) is 95 % of control and 96 % of control; the T/C (dose: 240.0 mg/kg/injection, schedule: Q01DX005 (ip), vehicle: saline) was 97 % of control and 90 % of control.
In the case of `NC(CSC(c1ccccc1)(c1ccccc1)c1ccccc1)C(=O)OC(c1ccccc1)c1ccccc1` (centres undefined), the T/C was 150 % of control and 154 % of control (dose: 400.0 mg/kg/injection, schedule: Q04DX003 (ip), vehicle: saline with Tween-80); 109 % of control (dose: 600.0 mg/kg/injection, schedule: Q04DX003 (ip), vehicle: saline with Tween-80).
On to `O=c1n(-c2ccccc2)c(=O)n2n1C1C3C4C3C2C2(F)C4C12` (centres undefined), for which the T/C is, setting by setting: (dose: 3.0 mg/kg/injection, schedule: Q04DX002 (ip), vehicle: Klucel (hydroxypropylcellulose) (HPC)) 95 % of control; (dose: 6.0 mg/kg/injection, schedule: Q04DX002 (ip), vehicle: Klucel (hydroxypropylcellulose) (HPC)) 101 % of control; (dose: 12.5 mg/kg/injection, schedule: Q04DX002 (ip), vehicle: Klucel (hydroxypropylcellulose) (HPC)) 108 % of control.
As to `CSCC1(C)OC(c2ccccc2)=Nc2ccccc21` (centres undefined), the T/C under setting [4] was 97 % of control; the T/C under setting [5] was 98 % of control; the T/C (dose: 400.0 mg/kg/injection, schedule: Q04DX002 (ip), vehicle: saline with Tween-80) was 106 % of control.
Take `COC(=O)c1cccc2c1Oc1c(cccc1C(=O)OC)S2`: the T/C (dose: 100.0 mg/kg/injection, schedule: Q04DX002 (ip), vehicle: Klucel (hydroxypropylcellulose) (HPC)) is 109 % of control; the T/C (dose: 200.0 mg/kg/injection, schedule: Q04DX002 (ip), vehicle: Klucel (hydroxypropylcellulose) (HPC)) is 115 % of control; the T/C (dose: 400.0 mg/kg/injection, schedule: Q04DX002 (ip), vehicle: Klucel (hydroxypropylcellulose) (HPC)) is 117 % of control.
